In ChEMBL document CHEMBL5674860, “Optimized Dual-Glo Assay to identify co-culture-induced drug vulnerabilities in 3D CRC models” (2024):

Key:
Type in all cases: functional, Homo sapiens
Design in all cases: dose or concentration left out as unconfirmed
Colon cancer organoid [1] = assay: Optimized Dual-Glo assay to identify co-culture induced drug vulnerabilities using donated chemical probes and chemogenomics kinase set in O14 CRC organoid and F14 CAF mono and co-culture. […] Cell viability is reported both mono and co-culture models.
Colon cancer organoid [2] = assay: Optimized Dual-Glo assay to identify co-culture induced drug vulnerabilities using donated chemical probes and chemogenomics kinase set in O06 CRC organoid and F06 CAF mono and co-culture. […] Cell viability is reported both mono and co-culture models.
Colon cancer organoid [3] = assay: Optimized Dual-Glo assay to identify co-culture induced drug vulnerabilities using donated chemical probes and chemogenomics kinase set in O20 CRC organoid and F20 CAF mono and co-culture. […] Cell viability is reported both mono and co-culture models.
[4] = Culture type Co-Culture, Transduced with Lucferase2-P2A-EGFP lentivirus
[5] = Culture type Co-Culture, Transduced with Renilla-dsRed lentivirus
[6] = Culture type Mono-Culture, Transduced with Lucferase2-P2A-EGFP lentivirus
[7] = Culture type Mono-Culture, Transduced with Renilla-dsRed lentivirus

Compound	Cell Viability (Colon cancer organoid [1]; [4]) [%]	Cell Viability (Colon cancer organoid [1]; [5]) [%]	Cell Viability (Colon cancer organoid [1]; [6]) [%]	Cell Viability (Colon cancer organoid [1]; [7]) [%]	Cell Viability (Colon cancer organoid [2]; [4]) [%]	Cell Viability (Colon cancer organoid [2]; [5]) [%]	Cell Viability (Colon cancer organoid [2]; [6]) [%]	Cell Viability (Colon cancer organoid [2]; [7]) [%]	Cell Viability (Colon cancer organoid [3]; [4]) [%]	Cell Viability (Colon cancer organoid [3]; [5]) [%]	Cell Viability (Colon cancer organoid [3]; [6]) [%]	Cell Viability (Colon cancer organoid [3]; [7]) [%]
O=C(N[C@H]1CCCCC/C=C\C2C[C@@]2(C(=O)O)NC(=O)[C@@H]2C[C@@H](Oc3ccncc3)CN2C1=O)OC1CCCC1 (stereo partly specified) [BI 1675]	104.235	108.175	94.4705	89.8487	118.509	153.84	83.7502	91.3607	103.036	110.731	113.647	94.6025
CCOCCn1cc(C(=O)Nc2ccc(-n3nc(-c4cccnc4)cc3C(F)(F)F)cn2)ccc1=O [BI 1935]	119.66	103.733	123.828	100.697	92.9458	113.636	108.149	105.749	76.3275	148.205	94.4512	98.9549
C[C@H](NC(=O)c1cnc2n1[C@](C)(Cc1ccc(C#N)cc1)C(=O)N2c1cc(Cl)c(F)c(Cl)c1)C(=O)NC1(c2ccccn2)CC1 [BI 1950]	114.581	100.802	131.753	112.137	123.241	151.567	111.279	104.666	121.807	97.0159	112.646	94.255
CC(C)(C#Cc1ccc(NC(=O)COc2ccccc2C(=O)c2ccccc2)c(Cl)c1)C(=O)O [BI 2439]	91.5107	105.147	118.998	103.818	98.7582	98.9732	147.342	109.263	147.968	100.148	97.854	121.686
Cc1c(NC(=O)COc2ccc(Cl)cc2C(=O)c2cc(F)cc(C(F)(F)F)c2)ccc(C(=O)O)c1F [BI 2540]	79.1363	91.7704	120.435	101.06	131.143	97.0984	110.069	102.946	66.158	145.555	86.1051	111.497
O=C(NC[C@@H]1[C@H]2CN(C(=O)OCc3cc(C(F)(F)F)cc(C(F)(F)F)c3)C[C@@H]12)c1ccc2[nH]nnc2c1 [BI 2545]	75.1961	105.32	137.829	80.7794	124.688	144.467	99.0945	89.0013	135.058	115.933	103.58	122.062
Cc1nccc(COC(=O)N2C[C@@H]3[C@@H](CNC(=O)c4ccc5[nH]nnc5c4)[C@@H]3C2)n1 [BI 3017]	93.935	119.587	137.729	94.2589	136.883	128.292	95.2629	74.0867	107.028	99.2728	143.356	100.924
Cn1nc(C(=O)NCc2ccc(C(=O)O)cc2)cc1-c1ccc2[nH]ccc2c1 [BI 4395]	58.8492	93.1183	115.617	91.6294	92.221	114.828	85.3335	79.5775	100.657	92.7545	82.9051	93.5086
Cn1c(C2(NC(=O)c3ccc(NCC4CCCCC4)nc3)CCC2)nc2ccc(/C=C/C(=O)O)cc21 [BI 7656]	115.178	112.206	113.679	103.836	130.07	105.71	133.812	120.577	93.1126	134.723	113.339	113.787
C[C@@]1(Cc2ccc(C#N)cc2)C(=O)N(c2cc(Cl)cc(Cl)c2)c2ncc(C(=O)NC3(c4nc(C5CCC5)no4)CC3)n21 [BI 9446]	88.6006	103.948	113.423	106.796	85.7019	100.079	74.4511	102.688	72.3076	136.535	95.8483	102.524
CC(=O)N1CCC(c2ccc(C(=O)NC(=N)N)cc2C(F)(F)F)CC1 [BI 9627]	82.2007	132.273	72.3529	98.3882	150.087	189.046	112.79	98.1409	96.0735	101.417	111.956	89.7357
CCC(=O)N[C@H]1CC[C@@H](C(=O)N(C)c2ccc(-c3nc4ccccc4o3)cc2)C1 [BI 99179]	36.4327	197.223	76.5692	108.528	7.905	448.988	13.2074	86.3048	33.9891	149.12	57.7768	75.3735
CCC(=O)N[C@@H]1CC[C@H](C(=O)N(C)c2ccc(-c3nc4ccccc4o3)cc2)C1 [BI 99990]	87.159	112.98	99.3505	100.76	135.832	173.184	107.841	87.7071	115.817	121.154	99.9084	146.017
CCS(=O)(=O)c1cc2cc(C[C@](O)(CC(C)(C)c3ccc(F)cc3C(N)=O)C(F)(F)F)[nH]c2cn1 [BI 653048]	98.1614	169.499	94.8893	163.254	136.436	297.33	97.0766	179.661	85.6205	287.465	124.389	135.577
CC[C@H](CC(=O)O)n1c(=O)c2ncccc2n(Cc2cn(C)c3cc(C)cc(C)c23)c1=O [BI-1942]	138.147	85.0736	117.29	91.8874	119.907	136.619	121.189	103.918	107.514	100.799	88.7956	92.5825
CC[C@@H]1C(=O)N(C)c2cnc(Nc3ccc(C(=O)NC4CCN(C)CC4)cc3OC)nc2N1C1CCCC1 [BI-2536]	6.08	320.789	25.6478	192.03	3.341	324.743	5.694	205.81	3.7112	168.723	5.1365	106.916
CN(C)C(=O)c1sc2nc(N3CCC(S(C)(=O)=O)CC3)cc(C(F)(F)F)c2c1N [BI-5026]	89.3398	95.8994	89.8333	92.7462	108.851	103.89	124.761	97.708	82.5801	112.021	96.6036	91.1442
CCC(F)(F)c1cc(N2CCC(S(C)(=O)=O)CC2)nc2sc(C(N)=O)c(N)c12 [BI-605906]	108.411	90.1855	95.9322	83.0517	93.6384	92.3898	93.147	102.109	178.631	81.0914	102.635	91.2338
